This passage reports TGI and GI50 results from PubChem BioAssay (NCI).

Test systems include EKVX NSCLC; HCC-2998 colon; MDA-MB-231 breast; MOLT-4 leukemia; NCI-H460 lung; NCI-H522 lung; SK-MEL-5 melanoma; SK-OV-3 ovarian; SR leukemia; UO-31 renal.
Common to all, as to test: NCI tumour cell line growth inhibition, 48 h

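The compound was tested at five concentrations on cells cultured in 96-well plates, with a 48-hour exposure period. Here, GI50 denotes the concentration required for 50% inhibition of growth. TGI: total growth inhibition.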 Some results are limits rather than exact numbers.

Consider `CC(C)OC(=O)NNc1c(Cl)cc(Cl)cc1Cl`, for which the TGI is above 100 µM with EKVX NSCLC; above 100 µM with HCC-2998 colon; above 100 µM in the experiment with MDA-MB-231 breast; above 100 µM in the experiment on MOLT-4 leukemia; above 100 µM with NCI-H460 lung; 95.4 µM with NCI-H522 lung. Also, the TGI with SK-MEL-5 melanoma was 60.5 µM; with SK-OV-3 ovarian it was above 100 µM; in the experiment on SR leukemia it was above 100 µM; with UO-31 renal, above 100 µM.

With `CCc1n(Cc2ccc3ccccc3c2)cc[n+]1Cc1ccc2ccccc2c1`, the GI50 in the experiment on EKVX NSCLC is 0.766 µM; in the experiment on HCC-2998 colon it was 0.518 µM; with MDA-MB-231 breast, 0.392 µM; with MOLT-4 leukemia, 0.829 µM; in the experiment on NCI-H460 lung, 0.724 µM; with NCI-H522 lung, 0.303 µM. The GI50 in the experiment on SK-MEL-5 melanoma is 0.361 µM; in the experiment on SK-OV-3 ovarian, 1.46 µM; with SR leukemia it was 0.528 µM; in the experiment with UO-31 renal, 2.22 µM. The TGI with EKVX NSCLC was 5.55 µM; in the experiment on HCC-2998 colon, 1.85 µM; with MDA-MB-231 breast, 1.44 µM; in the experiment with MOLT-4 leukemia, 2.99 µM; in the experiment with NCI-H460 lung, 2.15 µM; with NCI-H522 lung, 1.44 µM. For the same compound, the TGI in the experiment on SK-MEL-5 melanoma turned out to be 1.28 µM; with SK-OV-3 ovarian, 5.73 µM; with SR leukemia it was 4.28 µM; in the experiment with UO-31 renal it was 8.86 µM.

Consider `COc1cc2c(cc1OCCCN1CCN(CCCOc3cc4c(cc3OC)C(=O)N3C[C@H](F)C[C@H]3C=N4)CC1)N=C[C@@H]1C[C@@H](F)CN1C2=O`, for which the GI50 with EKVX NSCLC was 0.273 µM; with HCC-2998 colon, 0.121 µM; in the experiment with MDA-MB-231 breast, 0.116 µM; in the experiment with MOLT-4 leukemia, below 0.018 µM; with NCI-H460 lung it was below 0.01 µM; in the experiment with NCI-H522 lung, below 0.041 µM. The GI50 in the experiment on SK-OV-3 ovarian is 0.07 µM; in the experiment with SR leukemia, below 0.021 µM; in the experiment with UO-31 renal, 0.823 µM. Further, the TGI with EKVX NSCLC is 16.3 µM; in the experiment with HCC-2998 colon it was 0.357 µM; with MDA-MB-231 breast it was 0.852 µM; in the experiment on MOLT-4 leukemia it was 1.68 µM; in the experiment on NCI-H522 lung, 1.16 µM; with SK-OV-3 ovarian, above 100 µM. The TGI came out at 0.521 µM with SR leukemia and 2.65 µM in the experiment with UO-31 renal.

Take `N#C/C(=C\c1ccccn1)c1nc2ccccc2o1`: the GI50 with EKVX NSCLC was 24.2 µM; in the experiment with HCC-2998 colon, 25.1 µM; in the experiment with MDA-MB-231 breast, 27.9 µM; in the experiment on MOLT-4 leukemia, 24.6 µM; in the experiment on NCI-H460 lung it was 31.7 µM; with NCI-H522 lung, 16.6 µM. Further, the GI50 is 18 µM in the experiment with SK-MEL-5 melanoma, 45.9 µM with SK-OV-3 ovarian, 20 µM in the experiment with SR leukemia and 18.8 µM in the experiment on UO-31 renal. Besides, the TGI in the experiment with EKVX NSCLC was above 100 µM; in the experiment with HCC-2998 colon, 50.2 µM; in the experiment with MDA-MB-231 breast it was above 100 µM; with MOLT-4 leukemia, 82.6 µM; in the experiment with NCI-H460 lung, above 100 µM; with NCI-H522 lung, 37 µM. Also, the TGI in the experiment on SK-MEL-5 melanoma was 43 µM; in the experiment with SK-OV-3 ovarian it was above 100 µM; in the experiment on SR leukemia, 78.4 µM; with UO-31 renal it was 59.7 µM.

For `COc1ccc(C(=O)c2no[n+]([O-])c2C(=O)c2ccc(OC)cc2)cc1`, the GI50 in the experiment with EKVX NSCLC is 7.54 µM; in the experiment with HCC-2998 colon, 17.5 µM; in the experiment on MDA-MB-231 breast it was 2.77 µM; with MOLT-4 leukemia it was 1.93 µM; in the experiment on NCI-H460 lung, 17.2 µM; with NCI-H522 lung, 0.205 µM. The GI50 was 12.6 µM in the experiment with SK-MEL-5 melanoma, 18 µM in the experiment on SK-OV-3 ovarian, 0.726 µM in the experiment with SR leukemia and 0.588 µM with UO-31 renal. Also, the TGI in the experiment on EKVX NSCLC was 22.5 µM; in the experiment on HCC-2998 colon, 31.6 µM; in the experiment on MDA-MB-231 breast, 8.16 µM; in the experiment on MOLT-4 leukemia, 4.25 µM; with NCI-H460 lung it was 33.5 µM; with NCI-H522 lung, 0.429 µM. Also, the TGI in the experiment on SK-MEL-5 melanoma stood at 25.1 µM; in the experiment on SK-OV-3 ovarian it was 32 µM; in the experiment on SR leukemia, 3.22 µM; with UO-31 renal, 1.17 µM.

For the compound `Cc1ccc(-c2csc3ncnc(Nc4cccc(O)c4)c23)cc1`, the GI50 with EKVX NSCLC is 37.8 µM; with HCC-2998 colon it was 17.2 µM; with MDA-MB-231 breast, above 100 µM; in the experiment on MOLT-4 leukemia it was 41.6 µM; with NCI-H460 lung, 29.2 µM; with NCI-H522 lung it was 18.5 µM. The GI50 was 22.8 µM in the experiment on SK-MEL-5 melanoma, 38.6 µM in the experiment on SK-OV-3 ovarian, 15.2 µM in the experiment on SR leukemia and 35.5 µM in the experiment on UO-31 renal. Besides, the TGI is 98 µM in the experiment on EKVX NSCLC; 34.1 µM in the experiment on HCC-2998 colon; above 100 µM in the experiment with MDA-MB-231 breast; above 100 µM in the experiment on MOLT-4 leukemia; 76.3 µM in the experiment on NCI-H460 lung; 62.1 µM in the experiment with NCI-H522 lung. Moreover, the TGI was 51.2 µM with SK-MEL-5 melanoma, above 100 µM in the experiment with SK-OV-3 ovarian, 77.5 µM in the experiment on SR leukemia and above 100 µM with UO-31 renal.

As for `CN(COC(=O)C(C)(C)C)c1nc(N(C)COC(=O)C(C)(C)C)nc(N(C)COC(=O)C(C)(C)C)n1`, the TGI in the experiment on EKVX NSCLC is above 100 µM; in the experiment on HCC-2998 colon, above 100 µM; in the experiment with MDA-MB-231 breast, 68.9 µM; in the experiment with MOLT-4 leukemia, above 100 µM; in the experiment on NCI-H460 lung, above 100 µM; in the experiment with NCI-H522 lung it was above 100 µM. The TGI in the experiment with SK-MEL-5 melanoma, in the experiment with SK-OV-3 ovarian, in the experiment on SR leukemia and with UO-31 renal was above 100 µM in each case.

For the compound `O=C(/C=C/c1cccc(Cl)c1)c1ccccc1`, the GI50 in the experiment with EKVX NSCLC is 14.8 µM; in the experiment with HCC-2998 colon it was 13 µM; in the experiment with MDA-MB-231 breast, 12.2 µM; in the experiment on MOLT-4 leukemia, 4.07 µM; in the experiment on NCI-H460 lung, 4.86 µM; with SK-MEL-5 melanoma, 13.2 µM. The GI50 is 16.7 µM in the experiment with SK-OV-3 ovarian, 2.6 µM in the experiment with SR leukemia and 6.55 µM with UO-31 renal. The TGI stood at 29.3 µM in the experiment on EKVX NSCLC; 26.7 µM in the experiment on HCC-2998 colon; 28.5 µM with MDA-MB-231 breast; 36.4 µM in the experiment on MOLT-4 leukemia; 18 µM with NCI-H460 lung; 26.3 µM in the experiment with SK-MEL-5 melanoma. Moreover, the TGI in the experiment on SK-OV-3 ovarian worked out at 30.9 µM; in the experiment on SR leukemia, 31.5 µM; in the experiment on UO-31 renal, 21.9 µM.

Turning to `O=C(Nc1cccc2[nH]c(C(F)(F)F)nc12)c1ccc(Br)cc1F`, the GI50 with HCC-2998 colon was 4.8 µM; in the experiment with MDA-MB-231 breast, 2.17 µM; in the experiment with MOLT-4 leukemia it was 3.83 µM; in the experiment on NCI-H460 lung, 3.45 µM; with NCI-H522 lung it was 2.55 µM; in the experiment with SK-MEL-5 melanoma, 1.85 µM. Moreover, the values for the GI50 in the experiment with SK-OV-3 ovarian, in the experiment with SR leukemia and with UO-31 renal were 2.64 µM, 3.51 µM and 1.98 µM, respectively. For the same compound, the TGI in the experiment on HCC-2998 colon amounted to 16 µM; with MDA-MB-231 breast, 6.19 µM; with MOLT-4 leukemia, 23.3 µM; with NCI-H460 lung, 12.4 µM; in the experiment with NCI-H522 lung, 8.26 µM; with SK-MEL-5 melanoma, 3.94 µM. Besides, the TGI is 9.27 µM in the experiment with SK-OV-3 ovarian, 16.1 µM in the experiment on SR leukemia and 7.36 µM in the experiment with UO-31 renal.

With `CCCCCCCCCCCCNCCCc1ccccc1`, the GI50 is 1.75 µM with HCC-2998 colon; 1.61 µM in the experiment on MDA-MB-231 breast; 2.04 µM in the experiment with MOLT-4 leukemia; 1.83 µM with NCI-H460 lung; 1.62 µM in the experiment on NCI-H522 lung; 1.73 µM in the experiment with SK-MEL-5 melanoma. Further, the results for the GI50 in the experiment with SK-OV-3 ovarian, in the experiment on SR leukemia and in the experiment with UO-31 renal were 2.37 µM, 1.2 µM and 1.86 µM, respectively. Also, the TGI with HCC-2998 colon was determined as 3.23 µM; in the experiment on MDA-MB-231 breast, 3.12 µM; with MOLT-4 leukemia, 4.5 µM; with NCI-H460 lung, 3.4 µM; in the experiment on NCI-H522 lung it was 3.03 µM; in the experiment with SK-MEL-5 melanoma, 3.11 µM. Moreover, the TGI with SK-OV-3 ovarian was 5.37 µM; in the experiment on SR leukemia it was 3.56 µM; in the experiment with UO-31 renal, 4.35 µM.

As for `O=C(NCCc1nccs1)c1cnc2c(S)cccc2c1`, the GI50 with EKVX NSCLC is 3.1 µM; with HCC-2998 colon, 10.5 µM; in the experiment on MDA-MB-231 breast, 3.33 µM; with MOLT-4 leukemia, 1.14 µM; with NCI-H460 lung it was 0.685 µM; in the experiment on SK-MEL-5 melanoma it was 3.2 µM. Besides, the results for the GI50 with SK-OV-3 ovarian, with SR leukemia and with UO-31 renal were 3.56 µM, 0.677 µM and 3.26 µM, respectively. For the same compound, the TGI with EKVX NSCLC was 38.2 µM; with HCC-2998 colon, 29.1 µM; with MDA-MB-231 breast, 56.4 µM; in the experiment on MOLT-4 leukemia it was above 100 µM; with NCI-H460 lung, 11.4 µM; with SK-MEL-5 melanoma, 16 µM. Further, the TGI in the experiment on SK-OV-3 ovarian was 15 µM; in the experiment on SR leukemia it was above 100 µM; in the experiment with UO-31 renal, 16 µM.

As to `O=C1/C(=C/c2ccc([N+](=O)[O-])s2)Oc2ccc(Br)cc21`, the GI50 was 0.443 µM in the experiment on HCC-2998 colon; 0.201 µM with MDA-MB-231 breast; 0.461 µM in the experiment with MOLT-4 leukemia; 0.396 µM in the experiment on NCI-H460 lung; 0.177 µM in the experiment with NCI-H522 lung; 0.268 µM with SK-MEL-5 melanoma. The GI50 in the experiment on SK-OV-3 ovarian was 2.09 µM; in the experiment with SR leukemia, 0.152 µM; in the experiment with UO-31 renal it was 0.166 µM. Further, the TGI in the experiment with HCC-2998 colon amounted to 1.68 µM; in the experiment with MDA-MB-231 breast it was 0.436 µM; in the experiment with MOLT-4 leukemia it was 3.82 µM; in the experiment on NCI-H460 lung it was 1.63 µM; in the experiment with NCI-H522 lung it was 0.351 µM; in the experiment with SK-MEL-5 melanoma, 0.805 µM. In addition, the TGI with SK-OV-3 ovarian was found to be 5.04 µM; with SR leukemia, 0.914 µM; in the experiment with UO-31 renal it was 0.346 µM.
